The target in one data set is hNav1.7 (Homo sapiens, UniProt Q15858). The data set can be described thus: Manual patch clamp experiment of hNav1.7 channel (CHO-hNav1.7 stable cell line). The format is cell-based. The source says:
Patch voltage clamp electrophysiology allows for the direct measurement and quantification of current block of voltage-gated sodium channels (NaV's), and allows the determination of the time and voltage-dependence of block which has been interpreted as differential binding to the resting, open and inactivated states of the sodium channel to reflect the compound's inhibitory or activating effects (Hille, B., Journal of General Physiology (1977), 69: 497-515).
Representative compounds of the present disclosure were performed using a manual patch clamp experiment and the purpose of this study was to test the effect of compounds on this ion channel current on a stable cell line transfected with a specific ion channel using a manual patch clamp method, the used stable cell lines CHO-hNav1.7 and HEK-hNav1.5 were from Genionics and WuXi Apptec (Shanghai) respectively.
Manual patch clamp experimental program is as follows:
(1) Preparation of solutions and compounds: The whole cell patch clamp technique was used to record hNav1.7 and hNav1.5 currents. In the experiment, the composition of extracellular fluid (mM): HEPES: 5, NaCl: 40, KCl: CaCl2:1, MgCl2:1, CdCl2:0.1, TEA-Cl: 20. The pH was adjusted to 7.3 with NaOH and the osmotic pressure was adjusted to 310-320 mOsm with sucrose, filtered and stored at 4° C. The composition of the intracellular fluid (mM): HEPES: 10, NaCl: 10, CsOH: 5, CsF: 140, EGTA: 1. The pH was adjusted to 7.3 with CsOH and the osmotic pressure was adjusted to 280-290 mOsm with sucrose, filtered and stored at −20° C.
The positive control and the test compound were firstly dissolved in 100% DMSO (Sigma-Aldrich, D2650), configured as stock solution at a concentration (100 nM, 1000 nM).) The above stock solution was serially diluted with DMSO prior to the experiment, the solution was further diluted with extracellular solution to obtain the desired concentration of the test solution.
(2) Manual Patch Clamp Experiment: The cell suspension was added to a 35 mm petri dish and placed on an inverted microscope stage, the cells were perfused with an extracellular fluid and the flow rate was 1-2 mL/min after cell adherence. The glass microelectrode was pulled in two steps by a microelectrode puller with an inlet water resistance of 2-5 MΩ. A/D-D/A digital-analog conversion was performed by Digidata 1440 (Molecular Devices) and pCLAMP software (version 10.2, Molecular Devices) for stimulation and signal acquisition; the signal was amplified by patch clamp amplifier (Multiclamp 700B, Molecular Devices), filtering is 4 KHz.
Two different voltage stimulation procedures were used in the hNav1.7 and hNav1.5 manual patch clamp experiments.
One is the inactivation stimulation program, the clamp potential is set at V1/2 of the corresponding channel, ie about 50% of the channels are inactivated, then the voltage is applied to −120 mV for 50 ms, then depolarized to −10 mV for 20 ms leading to sodium current, and finally back to the clamp potential. This stimulation program can also be called channel state-dependent voltage stimulation program.
The other is the non-inactivation stimulation program, the clamp potential is maintained at −120 mV, voltage stimulation is given to −10 mV for 20 ms leading to sodium current, and finally back to the clamp potential. That is all channels have not experienced inactivation status, but activate directly from the resting state under the conditions of the stimulation program.
The time intervals of these two voltage stimulation program were 10 s. The inhibitory effect of the compound was calculated by the change of the current before and after dosing, the IC50 value was fitted by the Hill equation. […] The results are shown in Table 33 and Table 34, respectively.

Data set [1] deals with T1, hERG potassium ion channel (Homo sapiens, UniProt Q12809).
T1 construct: host or cells: CHO (CHO hERG, passage P15)
The data set can be described thus: Effect on the hERG potassium ion channel (CHO hERG cells, manual patch clamp). The format is cell-based. How it is done: 2.1.1 Cells used in this experiment are CHO cell lines (supplied by Sophion Bioscience, Denmark) which are hERG cDNA transfectant and stably express hERG channels, cell progeny is P15. Cells are cultured in medium containing the following ingredients Invitrogen): Ham's F12 medium, 10% (v/v) inactivated fetal bovine serum, […] hygromycin B, […] Geneticin.
2.1.2 CHO hERG cells were grown in Petri dishes containing the above medium and cultured in an incubator containing 5% CO2 at 37° C. CHO hERG cells were transferred onto round glass plates in Petri dishes, and grown on the same culture medium and culture conditions as above 24 h to 48 h prior to the electrophysiological experiments, and the density of CHO hERG cells on each round glass plate needs to meet the requirements that the vast majority of cells are independent and individual.
The following solutions (supplied by Sophion) were used for electrophysiological recording. The reagents used in this test were provided by Sigma.
In this experiment, whole-cell current recording was performed using a manual patch clamp system (HEKA EPC-10 signal amplification and digital conversion system, purchased from HEKA Electronic, Germany). The round glass slide of which surface CHO hERG cells were grown on was placed in an electrophysiological recording slot under an inverted microscope. Perfused steadily with extracellular fluid in recording slot (approximately 1 ml per minute). A conventional whole-cell patch clamp current recording technique was used in the experiment. Unless otherwise specified, experiments were performed at normal room temperature (about 25° C.). Cell clamping was at −80 mV. […] The hERG potassium current recorded in the above steps could be superfused for test drug after the steady perfusion state of the extracellular fluid in the recording slot had been stabilized until the inhibition of the hERG current by the drug reached a steady state. […]
The test data were analyzed by the data analysis software provided by HEKA Patchmaster (V2x73.2), Microsoft Excel and Graphpad Prism 5.0.

pIC50: −log10 of the molar value. Read-outs that look alike come from different tables or passages of the source. Bounds are passed on as bounds.

T1 sequence (Q12809 whole entry): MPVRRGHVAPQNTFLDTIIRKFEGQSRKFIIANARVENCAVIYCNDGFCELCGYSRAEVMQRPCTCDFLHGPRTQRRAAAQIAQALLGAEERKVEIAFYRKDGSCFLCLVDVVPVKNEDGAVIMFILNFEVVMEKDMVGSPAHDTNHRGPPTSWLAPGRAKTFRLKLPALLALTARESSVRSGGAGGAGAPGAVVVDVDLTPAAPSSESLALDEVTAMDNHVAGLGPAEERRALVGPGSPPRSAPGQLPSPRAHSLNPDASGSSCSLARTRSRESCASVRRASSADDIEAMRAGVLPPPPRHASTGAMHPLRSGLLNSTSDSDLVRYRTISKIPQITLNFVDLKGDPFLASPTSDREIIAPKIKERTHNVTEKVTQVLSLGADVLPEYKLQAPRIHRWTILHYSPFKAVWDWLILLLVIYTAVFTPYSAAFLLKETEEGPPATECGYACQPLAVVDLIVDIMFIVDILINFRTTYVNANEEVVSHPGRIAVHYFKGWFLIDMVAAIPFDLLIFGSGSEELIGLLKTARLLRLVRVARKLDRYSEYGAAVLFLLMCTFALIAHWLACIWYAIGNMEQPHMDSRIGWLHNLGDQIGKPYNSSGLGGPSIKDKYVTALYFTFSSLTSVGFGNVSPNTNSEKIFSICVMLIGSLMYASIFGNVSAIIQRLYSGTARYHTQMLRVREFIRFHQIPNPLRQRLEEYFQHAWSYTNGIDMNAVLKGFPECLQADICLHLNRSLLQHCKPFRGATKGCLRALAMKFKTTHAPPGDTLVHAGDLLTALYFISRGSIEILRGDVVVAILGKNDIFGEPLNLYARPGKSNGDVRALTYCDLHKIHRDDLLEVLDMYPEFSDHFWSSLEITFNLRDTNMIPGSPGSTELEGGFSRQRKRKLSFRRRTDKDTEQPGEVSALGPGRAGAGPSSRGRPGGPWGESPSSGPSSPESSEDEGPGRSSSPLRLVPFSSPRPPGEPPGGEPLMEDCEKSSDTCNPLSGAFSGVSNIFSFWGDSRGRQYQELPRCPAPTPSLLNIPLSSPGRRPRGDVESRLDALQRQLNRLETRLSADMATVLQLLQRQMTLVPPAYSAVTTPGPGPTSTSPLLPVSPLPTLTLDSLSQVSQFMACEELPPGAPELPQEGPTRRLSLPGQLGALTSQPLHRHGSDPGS
Chain of hNav1.7 (Q15858 whole entry): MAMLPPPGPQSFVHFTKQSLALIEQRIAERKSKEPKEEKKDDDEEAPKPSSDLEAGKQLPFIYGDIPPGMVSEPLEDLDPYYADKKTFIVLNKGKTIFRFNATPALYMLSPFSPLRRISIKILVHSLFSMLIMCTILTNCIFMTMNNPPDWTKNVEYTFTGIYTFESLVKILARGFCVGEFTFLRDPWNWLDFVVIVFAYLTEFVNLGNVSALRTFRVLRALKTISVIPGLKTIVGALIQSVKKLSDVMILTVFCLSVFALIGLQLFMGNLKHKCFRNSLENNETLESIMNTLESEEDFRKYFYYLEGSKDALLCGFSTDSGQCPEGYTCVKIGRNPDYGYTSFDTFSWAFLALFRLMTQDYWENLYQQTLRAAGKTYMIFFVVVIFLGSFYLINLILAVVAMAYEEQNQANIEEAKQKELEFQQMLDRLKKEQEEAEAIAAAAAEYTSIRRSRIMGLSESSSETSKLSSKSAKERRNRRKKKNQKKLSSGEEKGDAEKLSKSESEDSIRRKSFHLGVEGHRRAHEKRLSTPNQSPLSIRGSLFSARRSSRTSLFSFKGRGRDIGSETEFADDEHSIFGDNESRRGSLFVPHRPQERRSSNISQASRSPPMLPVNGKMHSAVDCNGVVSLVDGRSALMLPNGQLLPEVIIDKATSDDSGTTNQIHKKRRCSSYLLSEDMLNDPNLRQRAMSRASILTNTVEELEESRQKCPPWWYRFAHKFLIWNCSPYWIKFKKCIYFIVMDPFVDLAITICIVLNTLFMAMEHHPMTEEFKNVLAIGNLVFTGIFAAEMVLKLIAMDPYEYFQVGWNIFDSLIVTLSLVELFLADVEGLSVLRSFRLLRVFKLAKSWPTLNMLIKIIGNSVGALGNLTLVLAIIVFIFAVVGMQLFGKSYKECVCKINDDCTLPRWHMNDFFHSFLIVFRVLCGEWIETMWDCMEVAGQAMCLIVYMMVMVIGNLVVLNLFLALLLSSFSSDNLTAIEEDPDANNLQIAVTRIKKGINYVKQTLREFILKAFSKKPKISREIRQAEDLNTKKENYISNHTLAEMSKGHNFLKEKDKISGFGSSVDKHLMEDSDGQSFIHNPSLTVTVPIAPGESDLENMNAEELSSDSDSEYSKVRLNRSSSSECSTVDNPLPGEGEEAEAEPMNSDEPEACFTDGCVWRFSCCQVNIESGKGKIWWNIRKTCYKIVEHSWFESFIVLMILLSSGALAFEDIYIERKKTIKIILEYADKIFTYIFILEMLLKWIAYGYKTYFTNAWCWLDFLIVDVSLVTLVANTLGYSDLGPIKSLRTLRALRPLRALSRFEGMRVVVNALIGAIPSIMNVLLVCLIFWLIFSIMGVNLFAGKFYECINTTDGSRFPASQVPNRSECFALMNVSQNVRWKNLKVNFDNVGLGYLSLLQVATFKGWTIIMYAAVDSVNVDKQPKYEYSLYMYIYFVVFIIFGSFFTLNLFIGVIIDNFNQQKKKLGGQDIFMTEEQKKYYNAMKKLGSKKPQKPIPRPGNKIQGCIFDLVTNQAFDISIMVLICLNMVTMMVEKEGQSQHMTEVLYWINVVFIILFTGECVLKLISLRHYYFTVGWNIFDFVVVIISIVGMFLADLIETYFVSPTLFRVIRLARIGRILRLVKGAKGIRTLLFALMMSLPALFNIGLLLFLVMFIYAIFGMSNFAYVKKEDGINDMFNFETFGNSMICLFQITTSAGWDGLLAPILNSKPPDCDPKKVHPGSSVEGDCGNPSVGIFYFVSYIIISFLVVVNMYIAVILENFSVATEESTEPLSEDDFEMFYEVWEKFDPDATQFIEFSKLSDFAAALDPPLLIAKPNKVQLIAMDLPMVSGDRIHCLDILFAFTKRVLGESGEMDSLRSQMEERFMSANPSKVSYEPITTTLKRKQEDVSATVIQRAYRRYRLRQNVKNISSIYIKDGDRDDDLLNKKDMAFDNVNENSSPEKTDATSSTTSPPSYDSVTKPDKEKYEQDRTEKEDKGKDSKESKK

Take `Cc1cc(N2CCN(Cc3cc(F)c(C(=O)NS(=O)(=O)C4CC4)cc3Cl)CC2)ccc1Cl` [the free base of formula X compound, 5-chloro-4-((4-(4-chloro-3-methylphenyl)piperazin-1-yl)methyl)-N-(cyclopropylsulfonyl)-2-fluorobenzamide]: the “inhibitory activity against Nav1.7” value against hNav1.7 is given as “higher inhibitory activity”. In addition, on hNav1.7 (read-out: Inhibition of Nav1.7, 100 nM(%)), the inhibition at 0.1 µM was 86.9%. In addition, the inhibition at 1 µM on hNav1.7 (read-out: Inhibition of Nav1.7, 1000 nM(%)) is 97.7%. In data set [1], the “inhibitory activity on the hERG potassium ion channel” value is listed as “little inhibitory activity”. Moreover, the pIC50 in data set [1] (read-out: hERG inhibitory concentration IC50) is less than 5.00. Further, the IC50 in data set [1] (read-out: hERG potassium ion channel (IC50/nM)) is more than 10000 nM.
